How the values were obtained:
[1] = tested on: HepG2-A16-CD81EGFP cells; assay: HepG2 cell cytotoxicity assay (CellTiter-Glo); format: cell-based; conditions: Homo sapiens, 72 h; for EC50: counter toxicity
Procedure: HepG2-A16-CD81EGFP cells (human hepatocarcinoma HepG2 cells stably transformed to express the tetraspanin CD81 receptor [51, 52]) were cultured at 37 °C in 5% CO2 in DMEM (without phenol red; Thermo Fisher Scientific, Waltham, MA, USA) supplemented with 10% FBS, 0.29 mg/mL glutamine, 100-unit penicillin and 100 μg/mL streptomycin. For cytotoxicity assays, compounds were prepared in 12-point 1:3 serial dilutions in DMSO starting at 10 mM. Then, 50 nL of compound (0.5% final DMSO concentration) were transferred with an Acoustic Transfer System (ATS) (Biosero) into white, solid bottom 1536-well assay plates (Greiner BioOne custom GNF mold; Monroe, NC, USA). Puromycin (12-point serial dilution starting at 10 μM) and 0.5% DMSO were used as positive and negative controls, respectively. After addition of compound, HepG2-A16-CD81EGFP cells in 10 µL of the above medium (5% FBS) were seeded into the assay plates at a density of 3,000 cells per well. Assay plates were incubated at 37 °C in 5% CO2for 72 h. To assess the HepG2 viability, the assay medium was removed by inverted centrifugation of the plate at 150 xg for 30 s. Then, 2 μL per well of CellTiter-Glo reagent (Promega diluted 1:2 with deionized water) was added using a MicroFlo liquid handler (BioTek). Immediately after addition of the CellTiter-Glo reagent, the luminescence was measured with an EnVision Multilabel reader (PerkinElmer). EC50 values were calculated using the normalized bioluminescence intensity and a non-linear, variable slope, four-parameter regression curve-fitting model in Prism 5 (GraphPad Software Inc., San Diego, CA, USA).

[2] = tested on: S. mansoni somules (schistosomula, post-infective larvae); assay: Phenotypic screen of S. mansoni somules (severity score); format: cell-based, Schistosoma mansoni; set-up: key to SOMULE DESCRIPTORS @ 10 µM, 24 h: Dark = dark; S = Slow; O = overactive; I = Immobile; R = shape altered from normal (either larger or smaller); Deg = degenerative changes; D = dead; pD = "partial death:" % of worms in a well that appear to be dead; conditions: for Somule Severity Score (10 µM) 24 h: score 0 (no effect) to 4 (maximum), averaged across two experiments; for SOMULE SEVERITY SCORES @ 10 µM, 24 / SOMULE SEVERITY SCORES @ 10 µM, 48 / SOMULE SEVERITY SCORES @ 10 µM, 72: score 0-4; for SOMULE SEVERITY SCORES @ 10 µM, 48 / Somule Severity Score (10 µM) 48 h: 48 h; for Somule Severity Score (10 µM) 48 h / Somule Severity Score (10 µM) 72 h: score 0 to 4; for SOMULE SEVERITY SCORES @ 10 µM, 72 / Somule Severity Score (10 µM) 72 h / SOMULE DESCRIPTORS @ 10 µM, 72 h: 72 h
Procedure: (§1) Functionalized Pht-based molecules were synthesized, and phenotypically screened at 10 µM as a function of time against S. Mansoni somules (up to 72 h) and adults (up to 24 h). The resulting phenotypes were classified using a previously described nomenclature that records the many non-exclusive changes (descriptors) that can occur in the parasite in response to chemical insult. Each descriptor is converted into a value from 0 (no effect) to 4 (maximal effect) to allow for comparisons of effects on the parasite between compounds [40, 41, 42, 43]. For consistency, we consider a score of 2 to be the minimum for a compound to be considered active.
(§2) Maintenance of the S. mansoni (Naval Medical Research Institute (NMRI) isolate), life cycle involved male Golden Syrian Hamsters and Biomphalaria glabrata snails (NMRI isolate), as the definitive and intermediate hosts, respectively. Use of hamsters was approved by the Institutional Animal Care and Use Committee of the University of California San Diego. The preparation of somules (post-infective larvae derived from infectious larvae called cercariae) and adult worms (≥42-days-old), and their co-incubation with test compounds using a customized Basch incubation medium were as described. Screens of two developmental stages were employed in order to identify compounds with a potential broader spectrum of efficacy than the current drug, PZQ, which is deficient in this regard. Screens with somules employed 96-well round-bottomed plates and 40–50 animals/well, whereas screens with adults employed 24-well flat-bottomed plates and approximately 5–7 males and 2–3 females/well. Screens employed a final compound concentration of 10 µM in DMSO (at 0.5% and 0.1% final concentrations for somules and adults, respectively). The complex and often dynamic phenotypic responses that the schistosome parasite is capable of were observed using an Axiovert A1 inverted microscope at the times indicated in the data table. Observations were codified using a defined nomenclature that involves simple “descriptors”, to convey changes in shape, motility and appearance compared to DMSO controls. Each descriptor was given a value of 1 and these were added up to yield a “severity score” with a maximum of 4. Evidence of degeneracy or death was awarded a value of 4 for adult parasites specifically, the inability to adhere to the bottom of the well using oral or ventral suckers was given a score of 1 and damage to the tegument (surface) was awarded a value of 4 on the understanding that such damage in vivo would compromise survival. Scores were averaged across the two experiments.

[3] = tested on: S. mansoni adults; assay: Phenotypic screen of S. mansoni adult worms (severity score); format: cell-based, Schistosoma mansoni; conditions: for ADULT SEVERITY SCORES @ 10 µM, 1 h / ADULT SEVERITY SCORES @ 10 µM, 5 h / ADULT SEVERITY SCORES @ 10 µM, 24 h: score 0-4; for Adult Severity Score (10 µM) 1 h / Adult Severity Score (10 µM) 5 h / Adult Severity Score (10 µM) 24 h: score 0 to 4
Procedure: as §1, §2

Structure (SMILES)	IC50 [1] [µM]	EC50 [1] [µM]	Somule Severity Score (10 µM) 24 h ([2]; 24 h)	SOMULE SEVERITY SCORES @ 10 µM, 24 ([2]; 24 h)	SOMULE SEVERITY SCORES @ 10 µM, 48 [2]	Somule Severity Score (10 µM) 48 h [2]	SOMULE SEVERITY SCORES @ 10 µM, 72 [2]	Somule Severity Score (10 µM) 72 h [2]	ADULT SEVERITY SCORES @ 10 µM, 1 h [3]	Adult Severity Score (10 µM) 1 h [3]	ADULT SEVERITY SCORES @ 10 µM, 5 h ([3]; 5 h)	Adult Severity Score (10 µM) 5 h ([3]; 5 h)	ADULT SEVERITY SCORES @ 10 µM, 24 h ([3]; 24 h)	Adult Severity Score (10 µM) 24 h ([3]; 24 h)	SOMULE DESCRIPTORS @ 10 µM, 24 h ([2]; 24 h, phenotypic descriptors)	SOMULE DESCRIPTORS @ 10 µM, 72 h ([2]; phenotypic descriptors)	ADULT DESCRIPTORS @ 10 µM, 5 h ([3]; 5 h, phenotypic descriptors)	ADULT DESCRIPTORS @ 10 µM, 24 h ([3]; 24 h, phenotypic descriptors)
CC(c1nc2ccccc2n1Cc1cn(-c2ccc(F)cc2)nn1)N1C(=O)c2ccccc2C1=O (centres unmarked) [6y, 2-(1-(1-((1-(4-Fluorophenyl)-1H-1,2,3-triazol-4-yl)methyl)-1H-benzo[d]imidazol-2-yl)ethyl)isoindoline-1,3-dione]	> 100	> 100	0	0	0	0	0	0	0	0	0	0	0	0	–	–	–	–
Cc1ccc(-n2cc(Cn3c(C(C)N4C(=O)c5ccccc5C4=O)nc4ccccc43)nn2)cc1 (centres unmarked) [6z, 2-(1-(1-((1-(p-Tolyl)-1H-1,2,3-triazol-4-yl)methyl)-1H-benzo[d]imidazol-2-yl)ethyl)isoindoline-1,3-dione]	> 100	> 100	1	1	0	0	0	0	0	0	0	0	0	0	R	–	–	–
CCC(C)C(c1nc2ccccc2n1Cc1cn(-c2c(F)cccc2F)nn1)N1C(=O)c2ccccc2C1=O (centres unmarked) [6x, 2-(1-(1-((1-(2,6-Difluorophenyl)-1H-1,2,3-triazol-4-yl)methyl)-1H-benzo[d]imidazol-2-yl)-2-methylbutyl)isoindoline-1,3-dione]	> 100	> 100	0	0	0	0	2	–	0	0	0	0	0	0	–	Dark, R	–	–
CCC(C)C(c1nc2ccccc2n1Cc1cn(-c2ccccc2F)nn1)N1C(=O)c2ccccc2C1=O (centres unmarked) [6v, 2-(1-(1-((1-(2-Fluorophenyl)-1H-1,2,3-triazol-4-yl)methyl)-1H-benzo[d]imidazol-2-yl)-2-methylbutyl)isoindoline-1,3-dione]	> 100	> 100	0	0	0	0	0	0	0	0	0	0	0	0	–	–	–	–
CCC(C)C(c1nc2ccccc2n1Cc1cn(-c2ccc(F)cc2F)nn1)N1C(=O)c2ccccc2C1=O (centres unmarked) [6w, 2-(1-(1-((1-(2,4-Difluorophenyl)-1H-1,2,3-triazol-4-yl)methyl)-1H-benzo[d]imidazol-2-yl)-2-methylbutyl)isoindoline-1,3-dione]	> 100	> 100	0	0	0	0	2	2	0	0	2	2	2	2	–	pD50	Unc, on sides	Unc, on sides

From publication PMC7169845, “Synthesis and Bioactivity of Phthalimide Analogs as Potential Drugs to Treat Schistosomiasis, a Neglected Disease of Poverty” (Pharmaceuticals, 2020)
